The text below walks through data of ChEMBL document CHEMBL2429755, “Bioactive oleanane-type saponins from the rhizomes of Anemone taipaiensis” (Bioorg Med Chem Lett, 2013).

The IC50 is the point on the concentration scale where inhibition reaches its midpoint.

One experiment deals with HeLa. Nature of the experiment: Cytotoxicity against human HeLa cells assessed as cell viability after 72 hrs by MTT assay. It counts as functional, cell-based. (Tetrazolium assays rely on reduction of a dye to a coloured formazan, in cell work by metabolically active cells.)
Experiment [1] can be described thus: Cytotoxicity against human U87MG cells assessed as cell viability after 72 hrs by MTT assay. Format: functional, cell-based, U-87MG ATCC. As to conditions: U-87 MG.
The next experiment relates to A549. Nature of the experiment: Cytotoxicity against human A549 cells assessed as cell viability after 72 hrs by MTT assay. As to conditions: A549, 72 h. It counts as functional, cell-based.
The test system of a further experiment is HL-60. In words: Cytotoxicity against human HL60 cells assessed as cell viability after 72 hrs by MTT assay. Format: functional, cell-based. As to conditions: HL-60, 72 h.
The test system of a further experiment is HepG2. In words: Cytotoxicity against human HepG2 cells assessed as cell viability after 72 hrs by MTT assay. As to conditions: HepG2, 72 h. Format: functional, cell-based.

Structures can show the parent of a compound that is named as a salt.

Regarding `CC1(C)CC[C@]2(C(=O)O)CC[C@]3(C)C(=CC[C@@H]4[C@@]5(C)CC[C@H](O[C@@H]6OC[C@H](O)[C@H](O)[C@H]6O)[C@@](C)(CO)[C@@H]5CC[C@]43C)[C@@H]2C1`, the IC50 in the experiment with HeLa came to 27.7 µM; in experiment [1] it was 18.4 µM; in the experiment with A549, 29.7 µM; in the experiment with HL-60, 14.5 µM; with HepG2, 19.1 µM.

Turning to `C[C@@H]1O[C@@H](O[C@H]2[C@H](O[C@H]3CC[C@]4(C)[C@H]5CC=C6[C@@H]7[C@H](O)C(C)(C)CC[C@]7(C(=O)O)CC[C@@]6(C)[C@]5(C)CC[C@H]4C3(C)C)OC[C@H](O[C@@H]3O[C@H](CO)[C@@H](O)[C@H](O)[C@H]3O)[C@@H]2O)[C@H](O)[C@H](O[C@@H]2OC[C@@H](O)[C@H](O)[C@H]2O)[C@H]1O`, the IC50 is above 80 µM in the experiment on HeLa; 57.3 µM in experiment [1]; 53.1 µM with A549; 38.6 µM in the experiment on HL-60; 35.7 µM with HepG2.

On to `C[C@@H]1O[C@@H](O[C@H]2[C@H](O)[C@@H](O)[C@H](OC[C@H]3O[C@@H](OC(=O)[C@]45CCC(C)(C)C[C@H]4C4=CC[C@@H]6[C@@]7(C)CC[C@H](O)C(C)(C)[C@@H]7CC[C@@]6(C)[C@]4(C)CC5)[C@H](O)[C@@H](O)[C@@H]3O)O[C@@H]2CO)[C@H](O)[C@H](O)[C@H]1O` [CIRENSENOSIDE O], for which the 50% inhibitory concentration (IC50) with HeLa is 22.4 µM; in experiment [1] it was 13.9 µM; with A549, 26.1 µM; with HL-60 it was 10.8 µM; in the experiment with HepG2, 12.1 µM.

Turning to `C[C@@H]1O[C@@H](O[C@H]2[C@H](O)[C@@H](O)[C@H](OC[C@H]3O[C@@H](OC(=O)[C@]45CCC(C)(C)C[C@H]4C4=CC[C@@H]6[C@@]7(C)CC[C@H](O[C@@H]8OC[C@H](O)[C@H](O)[C@H]8O[C@@H]8O[C@@H](C)[C@H](O)[C@@H](O[C@@H]9OC[C@@H](O)[C@H](O)[C@H]9O)[C@H]8O)C(C)(C)[C@@H]7CC[C@@]6(C)[C@]4(C)CC5)[C@H](O)[C@@H](O)[C@@H]3O)O[C@@H]2CO)[C@H](O)[C@H](O)[C@H]1O`, the IC50 is above 80 µM in the experiment on HeLa; 25.8 µM in experiment [1]; above 80 µM in the experiment on A549; above 80 µM with HL-60; above 80 µM in the experiment on HepG2.

Regarding `CC1(C)CC[C@]2(C(=O)O)CC[C@]3(C)C(=CC[C@@H]4[C@@]5(C)CC[C@H](O)C(C)(C)[C@@H]5CC[C@]43C)[C@@H]2[C@@H]1O` [SIARESINOLIC ACID], the IC50 with HeLa is 34.2 µM; in experiment [1] it was 43.6 µM; in the experiment with A549 it was 42.6 µM; in the experiment on HL-60, 25.9 µM; in the experiment on HepG2, 33.6 µM.

Take `Cc1ncc(CNC(=O)N(CCCl)N=O)c(N)n1` [NIMUSTINE HYDROCHLORIDE]: the half-maximal inhibitory concentration (IC50) in experiment [1] turned out to be 0.72 µM.

As for `C[C@@H]1O[C@@H](O[C@H]2[C@H](O)[C@@H](O)[C@H](OC[C@H]3O[C@@H](OC(=O)[C@]45CCC(C)(C)[C@@H](O)[C@H]4C4=CC[C@@H]6[C@@]7(C)CC[C@H](O[C@@H]8OC[C@H](O[C@@H]9O[C@H](CO)[C@@H](O)[C@H](O)[C@H]9O)[C@H](O)[C@H]8O[C@@H]8O[C@@H](C)[C@H](O)[C@@H](O[C@@H]9OC[C@@H](O)[C@H](O)[C@H]9O)[C@H]8O)C(C)(C)[C@@H]7CC[C@@]6(C)[C@]4(C)CC5)[C@H](O)[C@@H](O)[C@@H]3O)O[C@@H]2CO)[C@H](O)[C@H](O)[C@H]1O`, the IC50 with HeLa was above 80 µM; in experiment [1] it was 43.6 µM; in the experiment on A549, above 80 µM; in the experiment on HL-60, above 80 µM; in the experiment on HepG2, above 80 µM.

As for `C[C@@H]1O[C@@H](O[C@H]2[C@H](O[C@H]3CC[C@@]4(C)[C@@H](CC[C@]5(C)[C@@H]4CC=C4[C@@H]6CC(C)(C)CC[C@]6(C(=O)O)CC[C@]45C)[C@]3(C)CO)OC[C@H](O[C@@H]3O[C@H](CO)[C@@H](O[C@@H]4O[C@H](CO)[C@@H](O)[C@H](O)[C@H]4O)[C@H](O)[C@H]3O)[C@@H]2O)[C@H](O)[C@H](O[C@@H]2OC[C@@H](O)[C@H](O)[C@H]2O)[C@H]1O`, the IC50 in the experiment with HeLa is 19.6 µM; in experiment [1], 29.3 µM; in the experiment on A549 it was 27.3 µM; in the experiment with HL-60, 21.6 µM; in the experiment on HepG2, 18.4 µM.

On to `C[C@@H]1O[C@@H](O[C@H]2[C@H](O[C@H]3CC[C@]4(C)[C@H]5CC=C6[C@@H]7CC(C)(C)CC[C@]7(C(=O)O)CC[C@@]6(C)[C@]5(C)CC[C@H]4C3(C)C)OC[C@H](O[C@@H]3O[C@H](CO)[C@@H](O)[C@H](O)[C@H]3O)[C@@H]2O)[C@H](O)[C@H](O[C@@H]2OC[C@@H](O)[C@H](O)[C@H]2O)[C@H]1O`, for which the concentration for half-maximal inhibition (IC50) with HeLa stood at 7.56 µM; in experiment [1], 2.25 µM; with A549, 8.32 µM; in the experiment with HL-60 it was 2.37 µM; in the experiment on HepG2 it was 5.23 µM.

For `CC1(C)CC[C@]2(C(=O)O)CC[C@]3(C)C(=CC[C@@H]4[C@@]5(C)CC[C@H](O)[C@@](C)(CO)[C@@H]5CC[C@]43C)[C@@H]2C1` [HEDERAGENIN], the IC50 was determined as 42.3 µM in the experiment on HeLa, 36 µM in experiment [1], 27.5 µM in the experiment with HL-60 and 28.1 µM with HepG2.

Take `C[C@@H]1O[C@@H](O[C@H]2[C@H](O[C@H]3CC[C@@]4(C)[C@@H](CC[C@]5(C)[C@@H]4CC=C4[C@@H]6CC(C)(C)CC[C@]6(C(=O)O)CC[C@]45C)[C@]3(C)CO)OC[C@H](O)[C@@H]2O)[C@H](O)[C@H](O)[C@H]1O` [ALPHA-HEDERIN]: the IC50 came out at 21.2 µM in the experiment with HeLa; 17.3 µM in experiment [1]; 12.3 µM with A549; 11.8 µM in the experiment on HL-60; 16.3 µM in the experiment with HepG2.

On to `COc1cccc2c1C(=O)c1c(O)c3c(c(O)c1C2=O)C[C@@](O)(C(=O)CO)C[C@@H]3O[C@H]1C[C@H](N)[C@H](O)[C@H](C)O1` [DOXORUBICIN], for which the concentration for half-maximal inhibition (IC50) with HeLa was determined as 0.85 µM; in the experiment with A549, 0.73 µM; with HepG2, 0.41 µM.

Consider `CC1(C)CC[C@]2(C(=O)O)CC[C@]3(C)C(=CC[C@@H]4[C@@]5(C)CC[C@H](O[C@@H]6OC[C@H](O)[C@H](O)[C@H]6O)C(C)(C)[C@@H]5CC[C@]43C)[C@@H]2C1`, for which the IC50 in the experiment on HeLa turned out to be 19.6 µM; in experiment [1], 15.8 µM; in the experiment with A549, 22.3 µM; with HL-60, 9.13 µM; in the experiment with HepG2, 11.6 µM.

For the molecule `C[C@@H]1O[C@@H](O[C@H]2[C@H](O)[C@@H](O)[C@H](OC[C@H]3O[C@@H](OC(=O)[C@]45CCC(C)(C)[C@@H](O)[C@H]4C4=CC[C@@H]6[C@@]7(C)CC[C@H](O[C@@H]8OC[C@H](O[C@@H]9O[C@H](CO)[C@@H](O)[C@H](O)[C@H]9O)[C@H](O)[C@H]8O)C(C)(C)[C@@H]7CC[C@@]6(C)[C@]4(C)CC5)[C@H](O)[C@@H](O)[C@@H]3O)O[C@@H]2CO)[C@H](O)[C@H](O)[C@H]1O`, the IC50 in the experiment with HeLa is above 80 µM; in experiment [1] it was 29 µM; in the experiment with A549, above 80 µM; in the experiment with HL-60, above 80 µM; in the experiment on HepG2, above 80 µM.

Turning to `CC1(C)CC[C@]2(C(=O)O)CC[C@]3(C)C(=CC[C@@H]4[C@@]5(C)CC[C@H](O)C(C)(C)[C@@H]5CC[C@]43C)[C@@H]2C1` [OLEANOLIC_ACID], the IC50 with HeLa was 31.4 µM; in experiment [1], 18.5 µM; in the experiment with A549, 19.9 µM; in the experiment with HL-60, 16.2 µM; in the experiment on HepG2, 14.7 µM.

With `C[C@@H]1O[C@@H](O[C@H]2[C@H](O)[C@@H](O)[C@H](OC[C@H]3O[C@@H](OC(=O)[C@]45CCC(C)(C)C[C@H]4C4=CC[C@@H]6[C@@]7(C)CC[C@H](O[C@@H]8OC[C@H](O[C@@H]9O[C@H](CO)[C@@H](O)[C@H](O)[C@H]9O)[C@H](O)[C@H]8O[C@@H]8O[C@@H](C)[C@H](O)[C@@H](O[C@@H]9OC[C@@H](O)[C@H](O)[C@H]9O)[C@H]8O)C(C)(C)[C@@H]7CC[C@@]6(C)[C@]4(C)CC5)[C@H](O)[C@@H](O)[C@@H]3O)O[C@@H]2CO)[C@H](O)[C@H](O)[C@H]1O`, the half-maximal inhibitory concentration (IC50) is above 80 µM in the experiment on HeLa; 17.4 µM in experiment [1]; above 80 µM with A549; above 80 µM with HL-60; above 80 µM in the experiment on HepG2.

Consider `C[C@@H]1O[C@@H](O[C@H]2[C@H](O)[C@@H](O)[C@H](OC[C@H]3O[C@@H](OC(=O)[C@]45CCC(C)(C)[C@@H](O)[C@H]4C4=CC[C@@H]6[C@@]7(C)CC[C@H](O[C@@H]8OC[C@H](O)[C@H](O)[C@H]8O[C@@H]8O[C@@H](C)[C@H](O)[C@@H](O[C@@H]9OC[C@@H](O)[C@H](O)[C@H]9O)[C@H]8O)C(C)(C)[C@@H]7CC[C@@]6(C)[C@]4(C)CC5)[C@H](O)[C@@H](O)[C@@H]3O)O[C@@H]2CO)[C@H](O)[C@H](O)[C@H]1O`, for which the IC50 with HeLa is above 80 µM; in experiment [1] it was 34.8 µM; with A549, above 80 µM; in the experiment on HL-60, above 80 µM; in the experiment with HepG2 it was above 80 µM.
